# In patent US20060229233A1, “Compositions and methods for treating neurological disorders” (ID Biomedical Corporation, priority 2004, published 2006):
# Where two headings read alike, the source gives them in different places. Marks after values point to notes of the source that are not given here.
# Key:
# [1] = system: microglial phagocytosis; settings: Cha, A. et al. (2001) GLIA 33(1):87-95; cited from earlier work
# [2] = system: J20 APP transgenic mice; format: in vivo; settings: for EAE score: J20 APP transgenic mice
# Procedure: Induction and clinical evaluation of EAE in APP+ mice. (B6D2)F1 or (B6XSJL)F1 APP+ (WT or B-cell deficient μMT) and non-tg littermates were immunized in the hind footpads with 100 μg MOG(35-55), PLP 139-151 or 100 μg β-amyloid peptide (1-40) in CFA. Immediately thereafter and again 48 hours later mice received an i.p. injection containing 150 ng of pertussis toxin in 0.2 ml PBS. Animals were monitored for symptoms of EAE beginning 7 days after immunization and scored as follows: 0, no disease; 1, tail paralysis; 2, hind limb weakness; 3, hind limb paralysis; 4, hind limb plus forelimb paralysis; and 5, moribund.
# Nasal vaccination. Glatiramer acetate: 25 μg was given on days 1, 2, 4 and 5 the first week followed by a weekly boost for six weeks. IVX-908: 1 μg/mouse was given on days 1 and 5 the first week followed by a weekly boost for six weeks. BSA+IVX-908: 25 μg of BSA plus 1 ug IVX-908 were given on days 1 and 5 the first week, and 25 μg of BSA alone was given on days 2 and 4, followed by six weekly boosts of the combination of BSA+IVX-908. GA+IVX-908: 25 μg of GA plus 1 μg IVX-908 were given on days 1 and 5 the first week, and 25 μg of GA alone was given on days 2 and 4, followed by six weekly boosts of the combination of GA+IVX-908.
# [3] = system: Aβ; test: Anti-Aβ antibody level (IgG, OD) in immunized J20 APP transgenic mice; format: in vivo; settings: J20 APP transgenic mice
# Procedure: (§1) Antibody levels were measured against Aβ in animals immunized with MOG or PLP to determine if there was cross reactivity with Aβ and Aβ antibody titers as compared to those from animals immunized with Aβ. […] To definitively establish that antibodies were not playing a role, 16-month-old J20 mice bred to μMT B-cell deficient mice were immunized with MOG 35-55 in CFA followed by administration of Pertussis toxin.
# [4] = system: Aβ40 and Aβ42; test: Total brain Aβ by sandwich ELISA, J20 APP transgenic mice; format: in vivo
# Procedure: FIG. 1: Effect of subcutaneous immunization on total Aβ levels in the brain. To quantify amyloid burden, the right hemisphere was extracted in 5.0 M guanidinium-chloride (pH 8) for 3 hours at room temperature. Dilutions were used to measure levels of Aβ40 and Aβ42 by sandwich enzyme-linked immunosorbent assays (ELISA).
# Amyloid quantification. To quantify amyloid burden, the right hemisphere was extracted in 5.0 M guanidinium-chloride (pH 8) for 3 hours at room temperature. Dilutions were used to measure levels of insoluble (amyloid-associated) […] and Aβ42 by sandwich enzyme-linked immunosorbent assays (ELISA). […] Brains were frozen in the presence of OCT paraformaldehyde, cut to 14-μm longitudinal sections used for immunohistological staining and amyloid fibril quantification. […] Images (magnification ×20) from these sections were collected from a 3CCD color video camera and analyzed with appropriate software (NIH; Imaging Research). The amount of amyloid fibril was expressed as a percentage per mm^2 hippocampal region as measured by the software.
# [5] = system: Aβ fibrils; format: in vivo, mice
# Procedure: Amyloid quantification. To quantify amyloid burden, the right hemisphere was extracted in 5.0 M guanidinium-chloride (pH 8) for 3 hours at room temperature. Dilutions were used to measure levels of insoluble (amyloid-associated) […] and Aβ42 by sandwich enzyme-linked immunosorbent assays (ELISA). To measure Aβ fibrils, the left hemisphere was fixed in 4% […] O/N followed by 4.5% sucrose for 4 hours then 20% Sucrose for O/N at 4° C. Brains were frozen in the presence of OCT paraformaldehyde, cut to 14-μm longitudinal sections used for immunohistological staining and amyloid fibril quantification. Well-defined hippocampal regions (Bregma −1.34), were selected for quantification of the amount of amyloid fibril in plaques using thioflavin-S staining. Images (magnification ×20) from these sections were collected from a 3CCD color video camera and analyzed with appropriate software (NIH; Imaging Research). The amount of amyloid fibril was expressed as a percentage per mm^2 hippocampal region as measured by the software.
# [6] = system: hippocampus of APP tg mice; test: Immunohistochemistry of hippocampus in immunized animals; format: in vivo
# Procedure: Immunohistology. The staining was performed utilizing the following markers: T-cells (CD3; BD Biosciences:553057), microglia/macrophages (CD11b; Serotec:MCA74G), (C-MFR; Cymbus Biotech:21080096), IFN-γ (Pharmingen: 559065), IL-10 (Pharmingen:559063) and TGF-β (RD:AB-20-PB). Anti-amyloid antibodies (R1282) were a gift of Dennis Seloke. Brain sections were further subject to Haematoxylin staining. Sections were evaluated in a blinded manner, and controls included use of isotype-matched mAbs as previously described. For each treatment the quantification was done from the hippocampal region of three different brain sections (the same region, Bregma −1.34, that were used for ThS staining). The results are expressed as the mean of the labeled cells for each marker.
# [7] = system: APP non-transgenic mice; test: Microglial activation in APP non-transgenic mice; format: in vivo; settings: parenteral with CFA/PT or nasal
# [8] = system: Aβ40 and Aβ42; test: Total brain Aβ by sandwich ELISA, J20 APP transgenic mice; format: in vivo; remark: listed apart in the source
# [9] = system: Tg2576 APP transgenic mice; test: EAE clinical score in PLP-immunized Tg2576 APP transgenic mice; format: in vivo; settings: PLP immunization in CFA
# Source text: In order to determine whether the effect was unique to MOG-induced EAE, EAE was induced with proteolipid protein (PLP) peptide (amino acids 139-151) in CFA. A 76% reduction of staining for Aβ fibrils was found and a 70% reduction in Aβ levels in animals with PLP induced EAE (p<0.02) (See Table 2, FIG. 3A). In order to induce EAE with PLP, Tg2576 mice as described by Hsiao, K. et al., Science 274 (5284):99-102 (1996) were utilized, which are on a B6/SJL background. Similar results were found with Tg2576 mice and J20 immunized mice described by Mucke et al., Ann NY Acad Sci (777) 82-88 (1996), to induce MOG-EAE (See Table 1). […] Of note, there was no difference in the total AS (amyloid) load in J20 mice greater than 13 months in age when compared to Tg2576 mice greater than 16 months of age.
# Induction and clinical evaluation of EAE in APP+ mice. (B6D2)F1 or (B6XSJL)F1 APP+ (WT or B-cell deficient μMT) and non-tg littermates were immunized in the hind footpads with 100 μg MOG(35-55), PLP 139-151 or 100 μg β-amyloid peptide (1-40) in CFA. […] Animals were monitored for symptoms of EAE beginning 7 days after immunization and scored as follows: 0, no disease; 1, tail paralysis; 2, hind limb weakness; 3, hind limb paralysis; 4, hind limb plus forelimb paralysis; and 5, moribund.
# [10] = system: Aβ; test: Anti-Aβ antibody level (IgG, OD 450) in Tg2576 APP transgenic mice; format: in vivo
# Procedure: as §1
# [11] = system: Aβ40 and Aβ42; test: Total brain Aβ by ELISA, Tg2576 APP transgenic mice; format: in vivo
# Source text: (§2) In order to determine whether the effect was unique to MOG-induced EAE, EAE was induced with proteolipid protein (PLP) peptide (amino acids 139-151) in CFA. A 76% reduction of staining for Aβ fibrils was found and a 70% reduction in Aβ levels in animals with PLP induced EAE (p<0.02) (See Table 2, FIG. 3A). In order to induce EAE with PLP, Tg2576 mice as described by Hsiao, K. et al., Science 274 (5284):99-102 (1996) were utilized, which are on a B6/SJL background. Similar results were found with Tg2576 mice and J20 immunized mice described by Mucke et al., Ann NY Acad Sci (777) 82-88 (1996), to induce MOG-EAE (See Table 1). […]
# (§3) Amyloid quantification. To quantify amyloid burden, the right hemisphere was extracted in 5.0 M guanidinium-chloride (pH 8) for 3 hours at room temperature. […] Brains were frozen in the presence of OCT paraformaldehyde, cut to 14-μm longitudinal sections used for immunohistological staining and amyloid fibril quantification. Well-defined hippocampal regions (Bregma −1.34), were selected for quantification of the amount of amyloid fibril in plaques using thioflavin-S staining. Images (magnification ×20) from these sections were collected from a 3CCD color video camera and analyzed with appropriate software (NIH; Imaging Research). The amount of amyloid fibril was expressed as a percentage per mm^2 hippocampal region as measured by the software.
# [12] = system: Aβ fibrils; test: Thioflavin-S quantification of Aβ fibrils in hippocampus, Tg2576 APP transgenic mice; format: in vivo
# Source text: as §2, §3
# [13] = system: activated microglia; test: Microglia activation (CD11b staining) in PLP-immunized animals; format: in vivo, mice; settings: PLP immunization; p<0.001
# [14] = immunization in CFA + pertussis toxin, APP transgenic mice
# [15] = subcutaneous immunization in CFA + pertussis toxin, J20 APP transgenic mice
# [16] = nasal immunization, J20 APP transgenic mice
# [17] = PLP immunization in CFA, Tg2576 APP transgenic mice
substance,measurement,setting,value
INF-gamma: Th1-type cytokine INF-gamma,augmentation of microglial phagocytosis,[1],75 % above untreated
glatiramer acetate [GA],occurrence of EAE,[2]; immunization in CFA + pertussis toxin,no clinical EAE
same,EAE score,[2]; nasal immunization,0
same,EAE score,"[2]; subcutaneous (footpad) immunization in CFA + pertussis toxin, scale 0-5",0
same,Anti-Aβ Antibody,"[3]; level of OD 450 at titer of 1:50 IgG, nasal immunization",0 OD 450
same,Anti-Aβ Antibody,"[3]; level of OD at titer of 1:500 IgG, subcutaneous immunization in CFA + pertussis toxin",0 OD
same,reduction of total brain Aβ (ELISA) / total amyloid load vs. control,[4]; [14],70%
same,Total brain Aβ,[4]; [15],39.1 ± 12.8 ^c ng/ml
same,reduction of staining for Aβ fibril in the hippocampus (thioflavin S) vs. controls,[5]; [14],92%
same,effect on Aβ fibrils / fibrillar Aβ staining,"[5]; mouse, in vivo",did not affect Aβ fibrils
same,% Area of thioflavin S positive Aβ plaques (hippocampus),[5]; [16],2.06 ± 0.8%
same,% Area of thioflavin positive Aβ plaques (hippocampus),[5]; [15],0.26 ± 0.1 ^d %
same,"CD3, number of cells per hippocampal region",[6]; NASAL,35 ± 19 cells per hippocampal region
same,"CD11b, number of cells per hippocampal region",[6]; NASAL,136 ± 12 cells per hippocampal region
same,"IFN-γ, number of cells per hippocampal region",[6]; NASAL,53 ± 3 ^i cells per hippocampal region
same,"IL-10, number of cells per hippocampal region",[6]; NASAL,75 ± 7 cells per hippocampal region
same,"M-CSFR, number of cells per hippocampal region",[6]; NASAL,30 ± 9 cells per hippocampal region
same,"TGF-β, number of cells per hippocampal region",[6]; NASAL,77 ± 10 cells per hippocampal region
same,"CD3, number of cells per hippocampal region",[6]; Subcutaneous (CFA/P.T.),61 ± 12 ^i cells per hippocampal region
same,"CD11b, number of cells per hippocampal region",[6]; Subcutaneous (CFA/P.T.),227 ± 61 ^i cells per hippocampal region
same,"IFN-γ, number of cells per hippocampal region",[6]; Subcutaneous (CFA/P.T.),85 ± 11 ^iv cells per hippocampal region
same,"IL-10, number of cells per hippocampal region",[6]; Subcutaneous (CFA/P.T.),59 ± 7 cells per hippocampal region
same,"M-CSFR, number of cells per hippocampal region",[6]; Subcutaneous (CFA/P.T.),57 ± 8 cells per hippocampal region
same,"TGF-β, number of cells per hippocampal region",[6]; Subcutaneous (CFA/P.T.),31 ± 7 cells per hippocampal region
same,microglial activation in APP non-transgenic mice,[7],No microglial activation
same,effect on total Aβ levels in the brain,[8]; nasal administration,slight reduction
same,Total brain Aβ,[8]; [16],97.6 ± 15.5 ng/mL
"proteolipid protein (PLP) peptide (amino acids 139-151) (CHCLGKWLGHPDK; UniProt P60202 139-151, looked up, fragment)",EAE score,[9],1.7 ± 0.7
same,anti-Aβ antibodies,[10]; PLP immunization,not detected
same,Anti-Aβ Antibody,"[10]; level of OD 450 at titer of 1:500 IgG, Tg2576 APP transgenic mice",0 OD 450
same,Total brain Aβ,[11]; [17],47.7 ± 18.4 ^a ng/ml
same,reduction in Aβ levels,"[11]; PLP induced EAE, Tg2576 mice",70%
same,% Area of thioflavin positive Aβ plaques (hippocampus),[12]; [17],0.68 ± 0.2 ^b %
same,reduction of staining for Aβ fibrils,"[12]; PLP induced EAE, Tg2576 mice",76%
same,microglia activation,[13],increased levels of microglia activation
